Measured values reported in the kinase profiling compilation of Christmann-Franck et al. (2016).

Assays:
Test in all cases: KINOMEscan competition binding
RPS6KA5 KD1 (human) = RPS6KA5 KD1 (human) (UniProt O75582)
[1] = biological target: JAK1 JH1 catalytic (human) (UniProt P23458)
[2] = biological target: PIK3CA (human), P42336 [E545K]
NEK5 (human) = NEK5 (human) (UniProt Q6P3R8)
EPHB6 (human) = EPHB6 (human) (UniProt O15197)
EPHA1 (human) = EPHA1 (human) (UniProt P21709)
CLK1 (human) = CLK1 (human) (UniProt P49759)
STK4 (human) = STK4 (human) (UniProt Q13043)
Chain of STK4 (human) (Q13043 whole entry, looked up): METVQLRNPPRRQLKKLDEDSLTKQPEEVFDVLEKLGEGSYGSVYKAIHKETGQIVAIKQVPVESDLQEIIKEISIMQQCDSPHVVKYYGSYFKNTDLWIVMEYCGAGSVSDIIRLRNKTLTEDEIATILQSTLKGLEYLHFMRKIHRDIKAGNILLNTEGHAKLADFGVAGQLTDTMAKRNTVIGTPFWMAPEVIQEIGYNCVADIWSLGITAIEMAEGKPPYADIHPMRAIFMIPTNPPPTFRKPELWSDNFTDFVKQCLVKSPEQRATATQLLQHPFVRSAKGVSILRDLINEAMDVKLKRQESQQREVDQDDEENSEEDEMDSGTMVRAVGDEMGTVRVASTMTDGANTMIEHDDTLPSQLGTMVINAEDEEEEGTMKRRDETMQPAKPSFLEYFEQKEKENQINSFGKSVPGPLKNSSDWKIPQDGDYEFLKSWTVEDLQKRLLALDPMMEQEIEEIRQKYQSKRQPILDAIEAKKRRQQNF

CaMK1 (human) = CaMK1 (human) (UniProt Q14012)
Chain of CaMK1 (human) (Q14012 whole entry, looked up): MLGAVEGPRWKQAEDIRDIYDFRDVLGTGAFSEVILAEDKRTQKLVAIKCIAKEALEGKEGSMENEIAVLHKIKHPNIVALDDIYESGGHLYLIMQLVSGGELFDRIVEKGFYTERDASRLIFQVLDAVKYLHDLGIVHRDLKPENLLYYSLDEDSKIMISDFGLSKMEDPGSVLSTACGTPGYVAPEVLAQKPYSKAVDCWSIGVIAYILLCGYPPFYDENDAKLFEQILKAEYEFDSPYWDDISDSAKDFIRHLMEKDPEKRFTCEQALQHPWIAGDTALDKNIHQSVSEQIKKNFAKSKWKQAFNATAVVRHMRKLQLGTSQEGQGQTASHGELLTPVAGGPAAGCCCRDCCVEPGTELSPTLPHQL

CLK2 (human) = CLK2 (human) (UniProt P49760)
EPHA6 (human) = EPHA6 (human) (UniProt Q9UF33)
TXK (human) = TXK (human) (UniProt P42681)
ERBB2 (human) = ERBB2 (human) (UniProt P04626)
GAK (human) = GAK (human) (UniProt O14976)
TAOK2 (human) = TAOK2 (human) (UniProt Q9UL54)
Chain of TAOK2 (human) (Q9UL54 whole entry, looked up): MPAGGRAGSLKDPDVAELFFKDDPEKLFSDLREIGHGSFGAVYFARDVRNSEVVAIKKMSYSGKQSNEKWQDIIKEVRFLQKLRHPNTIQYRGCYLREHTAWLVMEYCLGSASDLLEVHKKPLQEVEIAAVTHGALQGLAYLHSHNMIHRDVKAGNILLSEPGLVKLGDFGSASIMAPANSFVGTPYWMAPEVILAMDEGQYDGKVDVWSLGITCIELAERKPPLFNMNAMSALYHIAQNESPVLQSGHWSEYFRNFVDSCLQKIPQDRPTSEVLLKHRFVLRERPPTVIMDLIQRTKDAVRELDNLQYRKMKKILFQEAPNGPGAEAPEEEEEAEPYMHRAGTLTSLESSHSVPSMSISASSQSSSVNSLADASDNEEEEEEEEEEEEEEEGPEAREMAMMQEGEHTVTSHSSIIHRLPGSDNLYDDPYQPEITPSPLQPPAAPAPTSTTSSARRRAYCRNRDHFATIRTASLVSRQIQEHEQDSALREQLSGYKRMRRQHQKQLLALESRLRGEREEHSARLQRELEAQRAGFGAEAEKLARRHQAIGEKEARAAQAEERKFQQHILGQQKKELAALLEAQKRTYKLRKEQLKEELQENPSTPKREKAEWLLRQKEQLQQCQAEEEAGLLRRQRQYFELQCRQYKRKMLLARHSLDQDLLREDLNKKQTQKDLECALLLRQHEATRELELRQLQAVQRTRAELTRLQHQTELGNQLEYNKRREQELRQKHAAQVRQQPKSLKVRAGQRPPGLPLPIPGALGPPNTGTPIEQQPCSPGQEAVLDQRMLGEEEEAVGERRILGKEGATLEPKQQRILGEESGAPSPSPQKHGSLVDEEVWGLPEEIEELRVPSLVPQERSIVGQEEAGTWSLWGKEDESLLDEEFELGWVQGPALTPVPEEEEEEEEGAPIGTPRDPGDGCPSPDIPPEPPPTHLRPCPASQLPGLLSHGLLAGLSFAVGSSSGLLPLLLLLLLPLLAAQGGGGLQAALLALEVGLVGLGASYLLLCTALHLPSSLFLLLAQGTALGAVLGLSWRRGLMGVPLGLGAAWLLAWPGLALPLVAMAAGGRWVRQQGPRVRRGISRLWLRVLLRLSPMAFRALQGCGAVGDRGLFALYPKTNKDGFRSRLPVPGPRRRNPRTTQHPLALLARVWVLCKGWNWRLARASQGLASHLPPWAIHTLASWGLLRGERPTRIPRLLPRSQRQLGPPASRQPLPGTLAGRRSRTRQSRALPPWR

MYO3A (human) = MYO3A (human) (UniProt Q8NEV4)
FRK (human) = FRK (human) (UniProt P42685)
DYRK2 (human) = DYRK2 (human) (UniProt Q92630)
MAP4K1 (human) = MAP4K1 (human) (UniProt Q92918)
[3] = biological target: FLT3 (human), P36888 [K663Q]
AURKB (human) = AURKB (human) (UniProt Q96GD4)
[4] = biological target: ABL1 (human), P00519 [E255K]
FER (human) = FER (human) (UniProt P16591)
CAMKK1 (human) = CAMKK1 (human) (UniProt Q8N5S9)
FGFR4 (human) = FGFR4 (human) (UniProt P22455)
Chain of FGFR4 (human) (P22455 whole entry, looked up): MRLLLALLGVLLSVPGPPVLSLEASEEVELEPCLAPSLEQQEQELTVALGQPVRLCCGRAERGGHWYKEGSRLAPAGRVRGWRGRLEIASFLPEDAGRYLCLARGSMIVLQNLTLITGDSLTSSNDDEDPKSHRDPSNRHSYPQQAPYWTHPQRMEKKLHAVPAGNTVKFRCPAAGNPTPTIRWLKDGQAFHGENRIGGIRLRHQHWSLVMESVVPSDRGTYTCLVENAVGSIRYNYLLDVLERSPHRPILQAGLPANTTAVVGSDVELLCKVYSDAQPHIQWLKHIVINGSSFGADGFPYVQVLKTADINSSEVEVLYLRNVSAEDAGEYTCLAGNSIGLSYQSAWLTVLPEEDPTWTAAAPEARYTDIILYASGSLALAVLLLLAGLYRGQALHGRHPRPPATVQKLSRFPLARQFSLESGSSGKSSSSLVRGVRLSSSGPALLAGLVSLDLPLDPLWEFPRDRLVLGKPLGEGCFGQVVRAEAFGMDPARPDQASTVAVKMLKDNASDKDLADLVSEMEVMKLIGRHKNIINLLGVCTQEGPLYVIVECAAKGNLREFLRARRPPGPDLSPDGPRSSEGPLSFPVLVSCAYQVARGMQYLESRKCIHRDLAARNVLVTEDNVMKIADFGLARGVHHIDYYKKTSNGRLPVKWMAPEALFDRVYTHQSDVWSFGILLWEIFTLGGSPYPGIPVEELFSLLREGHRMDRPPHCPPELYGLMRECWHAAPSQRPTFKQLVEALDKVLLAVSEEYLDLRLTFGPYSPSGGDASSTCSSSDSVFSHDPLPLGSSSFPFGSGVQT

ROCK2 (human) = ROCK2 (human) (UniProt O75116)
[5] = biological target: BRAF (human), P15056 [V600E]
FGFR3 (human) = FGFR3 (human) (UniProt P22607)
CAMK1G (human) = CAMK1G (human) (UniProt Q96NX5)
PIM1 (human) = PIM1 (human) (UniProt P11309)
Chain of PIM1 (human) (P11309 whole entry, looked up): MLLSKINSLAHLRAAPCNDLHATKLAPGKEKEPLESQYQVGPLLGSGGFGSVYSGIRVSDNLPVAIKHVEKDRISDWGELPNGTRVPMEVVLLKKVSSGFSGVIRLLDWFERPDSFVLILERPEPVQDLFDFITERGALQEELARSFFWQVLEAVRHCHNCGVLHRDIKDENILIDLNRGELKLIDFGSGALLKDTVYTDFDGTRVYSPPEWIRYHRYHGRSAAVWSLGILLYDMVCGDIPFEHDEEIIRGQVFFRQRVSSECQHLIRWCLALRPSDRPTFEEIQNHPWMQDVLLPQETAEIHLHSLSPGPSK

INSRR (human) = INSRR (human) (UniProt P14616)
EPHB2 (human) = EPHB2 (human) (UniProt P29323)
MAPK12 (human) = MAPK12 (human) (UniProt P53778)
MAP3K12 (human) = MAP3K12 (human) (UniProt Q12852)
MAPK11 (human) = MAPK11 (human) (UniProt Q15759)
YES1 (human) = YES1 (human) (UniProt P07947)
Chain of YES1 (human) (P07947 whole entry, looked up): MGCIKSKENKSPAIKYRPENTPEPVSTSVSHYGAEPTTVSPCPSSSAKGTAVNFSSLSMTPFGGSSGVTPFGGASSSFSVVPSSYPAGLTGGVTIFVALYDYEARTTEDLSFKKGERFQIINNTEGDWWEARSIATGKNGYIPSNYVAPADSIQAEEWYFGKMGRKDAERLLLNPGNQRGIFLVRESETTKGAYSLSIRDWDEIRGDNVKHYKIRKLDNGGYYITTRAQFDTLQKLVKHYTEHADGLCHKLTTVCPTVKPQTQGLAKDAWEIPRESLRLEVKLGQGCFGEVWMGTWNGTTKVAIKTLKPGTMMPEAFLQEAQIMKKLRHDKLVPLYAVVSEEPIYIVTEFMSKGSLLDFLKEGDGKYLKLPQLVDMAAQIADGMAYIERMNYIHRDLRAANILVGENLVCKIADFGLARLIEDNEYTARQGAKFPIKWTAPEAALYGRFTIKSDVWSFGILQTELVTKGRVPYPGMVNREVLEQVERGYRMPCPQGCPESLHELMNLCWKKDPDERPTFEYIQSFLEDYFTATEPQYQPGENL

CDK5 (human) = CDK5 (human) (UniProt Q00535)
CSNK1E (human) = CSNK1E (human) (UniProt P49674)
Chain of CSNK1E (human) (P49674 whole entry, looked up): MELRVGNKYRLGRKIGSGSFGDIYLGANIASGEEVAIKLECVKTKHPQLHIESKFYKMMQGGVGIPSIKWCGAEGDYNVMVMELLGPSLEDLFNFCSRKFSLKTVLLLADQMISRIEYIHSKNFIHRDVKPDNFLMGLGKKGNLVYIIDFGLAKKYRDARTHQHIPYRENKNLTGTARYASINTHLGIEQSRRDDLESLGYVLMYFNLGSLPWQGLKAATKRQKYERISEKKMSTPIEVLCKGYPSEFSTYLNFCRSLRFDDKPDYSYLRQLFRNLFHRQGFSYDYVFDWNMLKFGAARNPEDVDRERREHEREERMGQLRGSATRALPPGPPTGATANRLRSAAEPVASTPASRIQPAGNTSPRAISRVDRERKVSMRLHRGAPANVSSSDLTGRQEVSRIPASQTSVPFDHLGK

LIMK2 (human) = LIMK2 (human) (UniProt P53671)
TIE1 (human) = TIE1 (human) (UniProt P35590)

Chain of RPS6KA5 KD1 (human) (O75582 whole entry, looked up): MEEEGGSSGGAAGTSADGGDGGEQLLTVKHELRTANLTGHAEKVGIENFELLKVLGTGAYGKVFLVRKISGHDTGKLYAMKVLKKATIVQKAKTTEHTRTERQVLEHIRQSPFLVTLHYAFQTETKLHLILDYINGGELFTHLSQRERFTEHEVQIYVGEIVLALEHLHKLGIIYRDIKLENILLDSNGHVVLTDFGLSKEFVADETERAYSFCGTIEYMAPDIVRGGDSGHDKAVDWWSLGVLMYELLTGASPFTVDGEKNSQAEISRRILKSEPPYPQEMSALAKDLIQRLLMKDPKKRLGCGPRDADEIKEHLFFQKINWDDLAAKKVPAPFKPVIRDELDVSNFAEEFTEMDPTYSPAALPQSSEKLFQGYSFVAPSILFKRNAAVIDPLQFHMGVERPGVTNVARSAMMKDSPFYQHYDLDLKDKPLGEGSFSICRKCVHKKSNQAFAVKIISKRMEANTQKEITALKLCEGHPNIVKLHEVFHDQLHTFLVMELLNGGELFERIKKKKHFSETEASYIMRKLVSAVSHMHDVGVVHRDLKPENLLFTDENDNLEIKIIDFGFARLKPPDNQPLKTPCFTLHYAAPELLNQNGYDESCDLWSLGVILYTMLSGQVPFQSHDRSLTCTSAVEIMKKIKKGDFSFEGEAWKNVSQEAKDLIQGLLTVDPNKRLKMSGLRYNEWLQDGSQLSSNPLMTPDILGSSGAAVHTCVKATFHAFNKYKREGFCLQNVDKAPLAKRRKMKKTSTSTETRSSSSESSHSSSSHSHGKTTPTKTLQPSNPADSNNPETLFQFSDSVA

With `COc1cc2ncnc(Oc3cccc(NC(=O)Nc4cc(C(C)(C)C(F)(F)F)on4)c3)c2cc1OC` the Kd (RPS6KA5 KD1 (human)) was 13 µM, the Kd [1] was 29 µM and the Kd [2] was 29 µM. The Kd (NEK5 (human)) was 28 µM, the Kd (EPHB6 (human)) was 0.092 µM and the Kd (EPHA1 (human)) was 0.14 µM. The Kd (CLK1 (human)) was 10 µM, the Kd (STK4 (human)) was 30 µM and the Kd (CaMK1 (human)) was 8.8 µM. It also gave a Kd (CLK2 (human)) of 21 µM, a Kd (EPHA6 (human)) of 0.0055 µM and a Kd (TXK (human)) of 0.19 µM. For the same compound, the Kd (ERBB2 (human)) was 0.24 µM, the Kd (GAK (human)) was 2.3 µM and the Kd (TAOK2 (human)) was 1.6 µM. The Kd (MYO3A (human)) was 15 µM, the Kd (FRK (human)) was 0.0096 µM and the Kd (DYRK2 (human)) was 27 µM. The Kd (MAP4K1 (human)) was 0.22 µM, the Kd [3] was 0.0042 µM and the Kd (AURKB (human)) was 25 µM. For the same compound, the Kd [4] was 0.0065 µM, the Kd (FER (human)) was 0.2 µM and the Kd (CAMKK1 (human)) was 16 µM. For the same compound, the Kd (FGFR4 (human)) was 0.45 µM, the Kd (ROCK2 (human)) was 37 µM and the Kd [5] was 0.014 µM. It also gave a Kd (FGFR3 (human)) of 3.3 µM, a Kd (CAMK1G (human)) of 30 µM and a Kd (PIM1 (human)) of 29 µM. It also gave a Kd (INSRR (human)) of 31 µM, a Kd (EPHB2 (human)) of 0.04 µM and a Kd (MAPK12 (human)) of 1.3 µM. The Kd (MAP3K12 (human)) was 35 µM, the Kd (MAPK11 (human)) was 0.015 µM and the Kd (YES1 (human)) was 0.16 µM. For the same compound, the Kd (CDK5 (human)) was 11 µM, the Kd (CSNK1E (human)) was 16 µM and the Kd (LIMK2 (human)) was 3.8 µM. For the same compound, the Kd (TIE1 (human)) was 0.024 µM.
